Measurements taken from patent publication US20240300946A1, “EGFR INHIBITORS” (Blueprint Medicines Corporation, priority 2021, published 2024).
Read-outs that look alike come from different tables or passages of the source.

What was measured:
[1] = tested on: phosphorylation of EGFR in NCI-H1975 cell line that harbors the EGFR L858R T790 M mutations; assay: NCI-H1975 pEGFR AlphaLISA assay; format: cell-based; conditions: p-EGFR (Tyr1068), 4-5 hours incubation, read-out: Ext pEGFR H1975 GMean IC50 (nM) Protocol: @ Pharmaron AlphaLISA (Num)
Description: Inhibitory effects of the compounds of the disclosure were evaluated in cellular assays that measure level of intracellular phosphorylation of EGFR in NCI-H1975 cell line that harbors the EGFR L858R T790 M mutations (ATCC, CRL-5908) using AlphaLISA sureFire ultra p-EGFR (Tyr1068) assay kit (PerkinElmer, ALSU-PEGFR-A50K). The NCI-H1975 cells were seeded at 12.5K/well in 22 μL into 384 well opti plate (PerkinElmer, 6007299) and adhering overnight at 37° C./5% CO2. On the next day, the test compounds and DMSO control were added into H1975 cell plate followed by incubation at 37° C./5% CO2 for 4-5 hours. The cells were then spin down in the 384-well plate and lysed with 10 μL of 1× AlphaLISA lysis buffer followed by shaking at 600 rpm for 10 minutes at room temperature. After that, 5 μL of an acceptor bead mix was added to each well followed by incubation at room temperature for 1.5-2 h in dark. Then 5 μL of a donor bead mix was added to each well followed by overnight incubation at room temperature in dark. On the next day, the plate was read at a compatible plate reader to obtain pEGFR signal. Percent of pEGFR inhibition was plotted against log concentration of compounds to generate IC50 values.

[2] = molecular target: T1, EGFR (L858R T790 M C797S) (Homo sapiens, UniProt P00533, C797S/L858R/T790M); assay: Biochemical EGFR inhibition assay (Caliper mobility shift), LRTMCS mutant at 1 mM ATP; conditions: read-out: LRTMCS (PH) IC50 (nM) @ 1 mM ATP (Num)
T1 construct: purchased SignalChem E10-122VG
T1 sequence (P00533 25-1210 T790M/C797S/L858R): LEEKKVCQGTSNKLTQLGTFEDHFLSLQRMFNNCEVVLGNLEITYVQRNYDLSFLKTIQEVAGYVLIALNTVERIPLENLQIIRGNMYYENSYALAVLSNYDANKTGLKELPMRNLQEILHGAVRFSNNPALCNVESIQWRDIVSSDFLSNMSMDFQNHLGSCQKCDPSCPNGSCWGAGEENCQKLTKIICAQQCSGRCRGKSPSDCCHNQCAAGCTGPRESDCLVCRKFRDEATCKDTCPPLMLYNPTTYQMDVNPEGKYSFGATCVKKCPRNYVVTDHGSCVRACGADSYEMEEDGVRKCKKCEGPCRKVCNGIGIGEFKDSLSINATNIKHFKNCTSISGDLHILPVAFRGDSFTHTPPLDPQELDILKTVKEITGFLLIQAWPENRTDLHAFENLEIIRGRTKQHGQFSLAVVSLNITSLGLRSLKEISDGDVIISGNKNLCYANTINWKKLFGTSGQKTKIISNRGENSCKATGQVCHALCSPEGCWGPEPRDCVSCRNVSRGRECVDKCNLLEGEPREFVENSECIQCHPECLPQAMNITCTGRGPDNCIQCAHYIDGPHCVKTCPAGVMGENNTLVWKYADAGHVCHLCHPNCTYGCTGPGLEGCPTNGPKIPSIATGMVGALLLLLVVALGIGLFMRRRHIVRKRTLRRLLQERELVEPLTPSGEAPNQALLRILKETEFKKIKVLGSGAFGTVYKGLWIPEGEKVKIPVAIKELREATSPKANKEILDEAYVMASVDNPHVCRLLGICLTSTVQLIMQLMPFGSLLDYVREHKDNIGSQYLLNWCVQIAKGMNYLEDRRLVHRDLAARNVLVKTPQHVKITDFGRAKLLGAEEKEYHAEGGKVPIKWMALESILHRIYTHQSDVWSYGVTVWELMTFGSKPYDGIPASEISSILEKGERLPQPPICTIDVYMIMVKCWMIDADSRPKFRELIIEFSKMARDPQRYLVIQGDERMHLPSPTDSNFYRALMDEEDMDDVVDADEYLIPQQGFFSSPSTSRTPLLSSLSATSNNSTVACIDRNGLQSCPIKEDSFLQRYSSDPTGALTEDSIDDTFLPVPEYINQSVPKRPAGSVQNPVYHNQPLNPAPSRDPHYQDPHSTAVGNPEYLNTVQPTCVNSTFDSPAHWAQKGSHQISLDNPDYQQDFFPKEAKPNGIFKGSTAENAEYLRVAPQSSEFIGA
Description: Inhibitory effects of the compounds of the disclosure were measured in biochemical assays that measure the phosphorylation activity of EGFR enzyme phosphorylates 2.5 micromolar 5-FAM-[…]-CONH2 peptide substrate (FL-Peptide 22, PerkinElmer, 760366) in the presence of adenosine-5′-triphosphate (ATP) and varying concentrations of the test compound in 100 mM 2-[4-(2-hydroxyethyl)piperazin-1-yl]ethanesulfonic acid (HEPES), pH 7.5, 10 mM MgCl2, 0.015% Brij-35, 1 mM dithiothreitol (DTT), 1.0% dimethylsulfoxide (DMSO). Assays were performed at 1.0 mM ATP or at ATP Km of the EGFR enzymes. Reactions proceeded until between 10% to 20% total peptides were phosphorylated at room temperature (25° C.) and were terminated with 35 mM 2,2′,2″,2′″-(ethane-1,2-diyldinitrilo)tetraacetic acid (EDTA). Product was detected using the Caliper mobility shift detection method where the phosphorylated peptide (product) and substrate were electrophoretically separated and measured. Percent activity was plotted against log concentration of compound and points to generate an apparent IC50. The following enzyme forms of EGFR were examples that were used in these assays: • EGFR WT (SignalChem, E10-112G) • EGFR (L858R T790 M C797S) (SignalChem, E10-122VG) • EGFR (d746-750) T790 M C797S (SignalChem, E10-122UG) • EGFR L858R (SignalChem, E10-122BG) • EGFR (d746-750) (SignalChem, E10-122JG)

[3] = Homo sapiens, NCI-H1975, NCI-H1975 cells

Row | IC50 [1, 3] [nM] | IC50 [2] [nM] | IC50 ([1]; NCI-H1975 cells) [nM] | Structure (SMILES)
1 | – | > 100 | > 50 | CC(C)c1cnc(N2CC(CS(C)(=O)=O)C2)c2cnc(Nc3ccnc([C@]4(C)C[C@@H](O)C4)n3)cc12 (single isomer, unassigned) [Example 25, (1r,3r)-3-(4-((5-isopropyl-8-(3-((methylsulfonyl)methyl)azetidin-1-yl)-2,7-naphthyridin-3-yl)amino)pyrimidin-2-yl)-3-methylcyclobutan-1-ol or (1s,3s)-3-(4-((5-isopropyl-8-(3-((methylsulfonyl)methyl)azetidin-1-yl)-2,7-naphthyridin-3-yl)amino)pyrimidin-2-yl)-3-methylcyclobutan-1-ol]
2 | > 50 | 15 to 20 | – | CC(C)c1cnc(N2CC(CS(C)(=O)=O)C2)c2cnc(Nc3ccnc([C@H]4C[C@H](O)C4)n3)cc12 [Example 7, (1r,3r)-3-(4-((5-isopropyl-8-(3-((methylsulfonyl)methyl)azetidin-1-yl)-2,7-naphthyridin-3-yl)amino)pyrimidin-2-yl)cyclobutan-1-ol]
3 | > 50 | 30 to 100 | – | CC(C)c1cnc(N2CC(CS(C)(=O)=O)C2)c2cnc(Nc3ccnc(C4CCC4)n3)cc12 [Example 5, N-(2-cyclobutylpyrimidin-4-yl)-5-isopropyl-8-(3-((methylsulfonyl)methyl)azetidin-1-yl)-2,7-naphthyridin-3-amine]
4 | 10 to 20 | ≤ 15 | – | Cc1ncc(-c2nccc(Nc3cc4c(C(C)C)cnc(N5CC(CS(C)(=O)=O)C5)c4cn3)n2)s1 [Example 1, 5-isopropyl-8-(3-((methylsulfonyl)methyl)azetidin-1-yl)-N-(2-(2-methylthiazol-5-yl)pyrimidin-4-yl)-2,7-naphthyridin-3-amine]
5 | 10 to 20 | ≤ 15 | – | CC(C)c1ccc(N2CC(CS(C)(=O)=O)C2)c2cnc(Nc3ccnc(-c4cnn(C)c4)n3)cc12 [Example 10, 5-isopropyl-N-(2-(1-methyl-1H-pyrazol-4-yl)pyrimidin-4-yl)-8-(3-((methylsulfonyl)methyl)azetidin-1-yl)isoquinolin-3-amine]
6 | > 50 | 30 to 100 | – | CC(C)c1cnc(N2CC(CS(C)(=O)=O)C2)c2cnc(Nc3ccnc([C@H]4C[C@@H](O)C4)n3)cc12 [Example 6, (1s,3s)-3-(4-((5-isopropyl-8-(3-((methylsulfonyl)methyl)azetidin-1-yl)-2,7-naphthyridin-3-yl)amino)pyrimidin-2-yl)cyclobutan-1-ol]
7 | > 50 | 30 to 100 | – | CC(C)c1cnc(N2CC(CS(C)(=O)=O)C2)c2cnc(Nc3ccnc([C@]4(C)C[C@@H](O)C4)n3)cc12 (single isomer, unassigned) [Example 24, (1r,3r)-3-(4-((5-isopropyl-8-(3-((methylsulfonyl)methyl)azetidin-1-yl)-2,7-naphthyridin-3-yl)amino)pyrimidin-2-yl)-3-methylcyclobutan-1-ol or (1s,3s)-3-(4-((5-isopropyl-8-(3-((methylsulfonyl)methyl)azetidin-1-yl)-2,7-naphthyridin-3-yl)amino)pyrimidin-2-yl)-3-methylcyclobutan-1-ol]
8 | > 50 | > 100 | – | CC(C)c1cnc(N2CC(CS(C)(=O)=O)C2)c2cnc(Nc3ccnc(C4(C)CC(=O)C4)n3)cc12 [Example 3, 3-(4-((5-isopropyl-8-(3-((methylsulfonyl)methyl)azetidin-1-yl)-2,7-naphthyridin-3-yl)amino)pyrimidin-2-yl)-3-methylcyclobutan-1-one]

Second part, the compound before the results:

Row | Structure (SMILES) | IC50 [1, 3] [nM] | IC50 [2] [nM] | IC50 ([1]; NCI-H1975 cells) [nM]
9 | CC(C)c1ncc(N2CC(CS(C)(=O)=O)C2)c2cnc(Nc3ccnc(-c4cnn(C)c4)n3)cc12 [Example 9, 5-isopropyl-N-(2-(1-methyl-1H-pyrazol-4-yl)pyrimidin-4-yl)-8-(3-((methylsulfonyl)methyl)azetidin-1-yl)-2,6-naphthyridin-3-amine] | 30 to 50 | ≤ 15 | –
10 | CC(C)c1ccc(N2CC(CS(C)(=O)=O)C2)c2cnc(Nc3ccnc(-c4cccnc4)n3)cc12 [Example 13, 5-isopropyl-8-(3-((methylsulfonyl)methyl)azetidin-1-yl)-N-(2-(pyridin-3-yl)pyrimidin-4-yl)isoquinolin-3-amine] | 10 to 20 | ≤ 15 | –
11 | COc1ccc(-c2nccc(Nc3cc4c(C(C)C)ccc(N5CC(CS(C)(=O)=O)C5)c4cn3)n2)cn1 [Example 11, 5-isopropyl-N-(2-(6-methoxypyridin-3-yl)pyrimidin-4-yl)-8-(3-((methylsulfonyl)methyl)azetidin-1-yl)isoquinolin-3-amine] | > 50 | 30 to 100 | –
12 | CC(C)c1ccc(N2C[C@H](CS(C)(=O)=O)[C@H]2C)c2cnc(Nc3ccnc(-c4cccnc4)n3)cc12 (single isomer, unassigned) [Example 22, 5-isopropyl-8-((2R,3S)-2-methyl-3-((methylsulfonyl)methyl)azetidin-1-yl)-N-(2-(pyridin-3-yl)pyrimidin-4-yl)isoquinolin-3-amine or 5-isopropyl-8-((2S,3R)-2 methyl-3-((methylsulfonyl)methyl)azetidin-1-yl)-N-(2-(pyridin-3-yl)pyridin-4-yl) isoquinolin-3-amine] | < 10 | ≤ 15 | –
13 | CC(C)c1ccc(N2C[C@H](CS(C)(=O)=O)[C@H]2C)c2cnc(Nc3ccnc(-c4cnn(C)c4)n3)cc12 (single isomer, unassigned) [Example 23, 5-isopropyl-N-(2-(1-methyl-1H-pyrazol-4-yl)pyrmidin-4-yl)-8-((2S,3S)-2-methyl-3-((methylsulfonyl)methy)azetidin-1-yl)isoquinolin-3-amine or 5-isopropyl-N-(2-(1-methyl-1H-pyrazol-4-yl)pyrimidin-4-yl)-8-((2S,3R)-2-methyl-3-((methylsulfonyl)methyl)azetidin-1-yl)isoquinolin-3-amine] | 10 to 20 | ≤ 15 | –
14 | Cc1ncc(-c2nccc(Nc3cc4c(C(C)C)ncc(N5CC(CS(C)(=O)=O)C5)c4cn3)n2)s1 [Example 8, 5-isopropyl-8-(3-((methylsulfonyl)methyl)azetidin-1-yl)-N-(2-(2-methylthiazol-5-yl)pyrimidin-4-yl)-2,6-naphthyridin-3-amine] | < 10 | ≤ 15 | –
15 | CC(C)c1ccc(N2CC(CS(C)(=O)=O)C2)c2cnc(Nc3ccnc(C4=CCC5(CC4)OCCO5)n3)cc12 [Example 15, N-(2-(1,4-dioxaspiro[4.5]dec-7-en-8-yl)pyrimidin-4-yl)-5-isopropyl-8-(3-((methylsulfonyl)methyl)azetidin-1-yl)isoquinolin-3-amine] | 30 to 50 | 15 to 20 | –
16 | CC(C)c1ccc(N2CC(CS(C)(=O)=O)C2)c2cnc(Nc3ccnc(-c4cncc(Cl)c4)n3)cc12 [Example 14, N-(2-(5-chloropyridin-3-yl)pyrimidin-4-yl)-5-isopropyl-8-(3-((methylsulfonyl)methyl)azetidin-1-yl)isoquinolin-3-amine] | > 50 | 30 to 100 | –
17 | Cc1ncc(-c2nccc(Nc3cc4c(C(C)C)ccc(N5C[C@H](CS(C)(=O)=O)[C@H]5C)c4cn3)n2)s1 (single isomer, unassigned) [Example 20, 5-isopropyl-8-(2R,3S)-2-methyl-3-((methylsulfonyl)methyl)azetidin-1-yl)-N-(2-(2-methylthiazol-5-yl)pyrimidin-4-yl)isoquinolin-3-amine or 5-isopropyl-8-((2S,3R)-2-methyl-3-((methylsulfonyl)methyl)azetidin-1-yl)-N-(2-(2-methylthiazol-5-yl)pyrimidin-4-yl)isoquinolin-3-amine] | – | ≤ 15 | < 10
